Values of other authors as cited in patent US5670663A (priority 1996, dated 1997).

Legend:
[1] = system: 8A10; settings: monoclonal antibody 8A10
[2] = system: 31-15; settings: antibody printed 31-15
[3] = system: 3C6; settings: monoclonal antibody 3C6
[4] = system: cancer

Row | Compound | cross reactivity with 8A10 [1] | relative affinity of antibody for baccatin III and its 7-epi isomer baccatin V [2] | reactivity with 3C6 [3] | activity against breast, lung and other cancers ([4]; breast, lung and other cancers) | antitumor activity ([4]; general statement)
1 | CC(=O)O[C@@]12CO[C@@H]1C[C@H](O)[C@@]1(C)C(=O)[C@H](O)C3=C(C)[C@@H](O)C[C@@](O)([C@@H](OC(=O)c4ccccc4)[C@H]21)C3(C)C [10-deacetylbaccatin III] | cross reacts |  |  |  | 
2 | C/C=C(\C)C(=O)N[C@@H](c1ccccc1)[C@@H](O)C(=O)O[C@H]1C[C@@]2(O)[C@@H](OC(=O)c3ccccc3)[C@@H]3[C@]4(OC(C)=O)CO[C@@H]4C[C@H](O)[C@@]3(C)C(=O)[C@H](OC(C)=O)C(=C1C)C2(C)C [Cephalomannine] | cross reacts |  |  |  | 
3 | CC(=O)O[C@H]1C(=O)[C@@]2(C)[C@H]([C@H](OC(=O)c3ccccc3)[C@]3(O)C[C@H](O)C(C)=C1C3(C)C)[C@]1(OC(C)=O)CO[C@@H]1C[C@@H]2O [baccatin III] | cross reacts | binds with equal affinity |  |  | 
4 | CC(=O)O[C@H]1C(=O)[C@]2(C)[C@H](O)C[C@H]3OC[C@@]3(OC(C)=O)[C@H]2[C@H](OC(=O)c2ccccc2)[C@]2(O)C[C@H](O)C(C)=C1C2(C)C [baccatin V] |  | binds with equal affinity |  |  | 
5 | CC(=O)O[C@H]1C(=O)[C@@]2(C)[C@H]([C@H](OC(=O)c3ccccc3)[C@]3(O)C[C@H](OC(=O)[C@H](O)[C@@H](NC(=O)c4ccccc4)c4ccccc4)C(C)=C1C3(C)C)[C@]1(OC(C)=O)CO[C@@H]1C[C@@H]2O [paclitaxel] | cross reacts |  | specifically reactive | shown activity | significant antitumor activity
